According to patent US20250019769A1, “REPURPOSING DRUGS FOR NON-SMALL CELL LUNG CANCER” (WEST VIRGINIA UNIVERSITY BOARD OF GOVERNORS ON BEHALF OF …, priority 2021, published 2025):
Like-named read-outs stand apart in the source and are kept apart here.

Experiments:
NSCLC cells = details: cited from earlier work
[1] = test system: xenograft mouse model of lung cancer; details: cited from earlier work
[2] = test system: gene expression of CD27, PD1, CTLA4, or PDL1; assay: Pearson correlation of drug-response measurements with gene expression of ICIs in human NSCLC epithelial cell lines; details: for correlation of EC50 with CD27 mRNA expression: p<0.05, Pearson's correlation test, NSCLC cell lines (n=79, FIG. 18B)
Description: (§1) The PRISM dataset. was obtained from the DepMap portal (https://depmap.org/portal/download/, PRISM repurposing 19Q4, accessed on 1 Apr. 2021). Carboplatin, cisplatin, docetaxel, erlotinib, etoposide, gefitinib, gemcitabine, paclitaxel (Taxol), pemetrexed, and vinorelbine were commonly used chemotherapeutic drugs in NSCLC treatment, the analysis focused on these ten regiments. Drug activity measurements, including IC50, ln(IC50), EC50, and ln(EC50), were used in the analysis. The available CCLE NSCLC cell lines were divided into three groups by the drug activity measurements: sensitive, resistant, and intermediate.
(§2) Drug activity measurements were generated in the GDSC Project. (https://www.cancerrxgene.org/downloads/bulk_download, accessed on 15 Apr. 2021). IC50 and ln(IC50) were the main metrics used in this analysis. The available CCLE NSCLC cell lines were divided into three groups by the drug activity measurements in the GDSC1/2 datasets, i.e., sensitive, resistant, and intermediate.
RStudio (version 1.4.1106), an integrated development environment for R, was used as the main tool for performing the statistical analyses. A two-tailed, unpaired Student's t-test was used to evaluate the significance of differential expression between two groups. Survival analysis and curves were generated using the Kaplan-Meier method, and log-rank tests were used to assess the difference in survival probability between different groups. The univariate and multivariate Cox regression analyses were used in the prognostic evaluation and curve generation with R packages “survival”, “survminer”, and “ggplot2”. The strength of the linear relationship between two sample groups was measured with Pearson's correlation test. Results in statistical tests were considered significant with a p-value<0.05.
Several targeted therapeutic candidates were identified with CMap.

NSCLC [3] = details: combination with gefitinib in NSCLC; cited from earlier work
[4] = test system: mRNA expression of CD27, PD1, or PDL1; assay: Pearson correlation of drug concentration (PRISM, GDSC1, GDSC2) with mRNA expression of immune checkpoint genes in CCLE NSCLC cell lines; design: species or system human; details: p<0.05, Pearson's correlation, datasets PRISM, CCLE NSCLC cell lines (n=117)
Description: The growth inhibitory activity of 4,518 drugs was quantified in 578 human cancer cell lines using the PRISM molecular barcoding and multiplexed screening method. The PRISM dataset is available at the Cancer Dependency Map portal (https://depmap.org/portal/download/, accessed on 1 Apr. 2021). Drug responses of 9 commonly used chemotherapeutic regimens in treating NSCLC were included: carboplatin, cisplatin, paclitaxel, docetaxel, gemcitabine, vinorelbine, etoposide, gefitinib, and erlotinib. For each drug, cell lines with IC50 or EC50 value higher than the maximum dose were defined as resistant; cell lines with IC50 or EC50 value lower than the minimum dose were defined as sensitive. The remaining cell lines were divided into groups of resistant, sensitive, or partial response by using the mean±0.5 standard deviation (SD) of the drug activity metrics, including IC50, ln(IC50), EC50, or ln(EC50) values. Cell lines with a drug activity value less than the mean−0.5 SD were defined as sensitive to the drug, and those with a drug activity value between the mean+0.5 SD and the mean−0.5 SD were defined as having a partial response to the drug. Cell lines with a drug activity value greater than the mean+0.5 SD were defined as resistant to the drug. This categorization corresponds to the RECIST 1.1 system (i.e., complete response, partial response, and stable disease/disease progression) in evaluating chemotherapeutic response in solid tumors. Drug screening data was downloaded from Genomics of Drug Sensitivity in Cancer (GDSC) Project (https://www.cancerrxgene.org/downloads/bulk_download, accessed on 15 Apr. 2021). The GDSC Project screened more than 1,000 genetically characterized human cancer cell lines with a wide range of anti-cancer therapeutic agents. Among the commonly used chemotherapeutic regimens in treating NSCLC drugs, […] were found in GDSC1, including cisplatin, docetaxel, erlotinib, etoposide, gefitinib, gemcitabine, pemetrexed, and vinorelbine; 7 were found in GDSC2, including cisplatin, docetaxel, erlotinib, gefitinib, gemcitabine, paclitaxel, and vinorelbine. For each drug, cell lines were defined as resistant, sensitive, or partial response by using the mean±0.5 SD of the IC50 values as described above. Various statistical methods can be utilized. Statistical analysis was performed using Rstudio version 1.4.1106. […] Survival analysis was performed using Kaplan-Meier analysis with the survival package in R. Log-rank tests were used to assess the difference in survival probability from different groups in Kaplan-Meier analyses. The genes in the networks were evaluated with Cox proportional hazard model and Kaplan-Meier analysis. Pearson's correlation test was used to find the relationship be-tween two variables. The multivariate Cox regression analysis was used to build the model of risk-scores. […] Pearson's correlation test was used to find the relationship between two variables. One-tailed two proportion z-test was used to compare if two proportions are the same.

[5] = test system: human NSCLC epithelial cell lines; assay: PRISM/GDSC drug response in human NSCLC epithelial cell lines (n=135); assay type: cell-based; details: average in human NSCLC epithelial cell lines (FIG. 18C)
Description: as §1, §2

[6] = test system: advanced solid tumors including NSCLC; details: single-agent, cited from earlier work
CCLE NSCLC cell lines = assay: PRISM drug screen, growth inhibitory activity in CCLE NSCLC cell lines; assay type: cell-based; details: Homo sapiens, read-out: average IC50 or EC50 value
Description: The growth inhibitory activity of 4,518 drugs was quantified in 578 human cancer cell lines using the PRISM molecular barcoding and multiplexed screening method. The PRISM dataset is available at the Cancer Dependency Map portal (https://depmap.org/portal/download/, accessed on 1 Apr. 2021). Drug responses of 9 commonly used chemotherapeutic regimens in treating NSCLC were included: carboplatin, cisplatin, paclitaxel, docetaxel, gemcitabine, vinorelbine, etoposide, gefitinib, and erlotinib. For each drug, cell lines with IC50 or EC50 value higher than the maximum dose were defined as resistant; cell lines with IC50 or EC50 value lower than the minimum dose were defined as sensitive. The remaining cell lines were divided into groups of resistant, sensitive, or partial response by using the mean±0.5 standard deviation (SD) of the drug activity metrics, including IC50, ln(IC50), EC50, or ln(EC50) values. Cell lines with a drug activity value less than the mean−0.5 SD were defined as sensitive to the drug, and those with a drug activity value between the mean+0.5 SD and the mean−0.5 SD were defined as having a partial response to the drug. Cell lines with a drug activity value greater than the mean+0.5 SD were defined as resistant to the drug. This categorization corresponds to the RECIST 1.1 system (i.e., complete response, partial response, and stable disease/disease progression) in evaluating chemotherapeutic response in solid tumors.
The growth inhibitory activity of 4,518 drugs was quantified in 578 human cancer cell lines using the PRISM molecular barcoding and multiplexed screening method. The PRISM dataset is available at the Cancer Dependency Map portal (https://depmap.org/portal/download/, accessed on 1 Apr. 2021). Drug responses of 9 commonly used chemotherapeutic regimens in treating NSCLC were included in this study: carboplatin, cisplatin, paclitaxel, docetaxel, gemcitabine, vinorelbine, etoposide, gefitinib, and erlotinib. For each drug, cell lines with IC50 or EC50 value higher than the maximum dose were defined as resistant; cell lines with IC50 or EC50 value lower than the minimum dose were defined as sensitive. The remaining cell lines were divided into groups of resistant, sensitive, or partial response by using the mean±0.5 standard deviation (SD) of the drug activity metrics, including IC50, ln(IC50), EC50, or ln(EC50) values. Cell lines with a drug activity value less than the mean−0.5 SD were defined as sensitive to the drug, and those with a drug activity value between the mean+0.5 SD and the mean−0.5 SD were defined as having a partial response to the drug. Cell lines a drug activity value greater than the mean+0.5 SD were defined as resistant to the drug. This categorization corresponds to the RECIST 1.1 system (i.e., complete response, partial response, and stable disease/disease progression) in evaluating chemotherapeutic response in solid tumors.

[7] = test system: FRα (FOSL1)-positive advanced solid tumors; details: patient derived xenograft models and phase I study; cited from earlier work
NSCLC [8] = details: stage IIIB, after chemoradiation, cited from earlier work
resected NSCLC tumors = details: neoadjuvant; 9 of 20 resected NSCLC tumors, stages I, II, and IIIA; cited from earlier work
[9] = CCLE NSCLC cell lines, 7-gene network study (FIG. 13C)
[10] = average over CCLE NSCLC cell lines (n=117), 8 doses 0.0006 μM to 10 μM

## Cc1cnc(Nc2ccc(OCCN3CCCC3)cc2)nc1Nc1cccc(S(=O)(=O)NC(C)(C)C)c1 [TG-101348]
NSCLC cells
  PDL1 protein expression: reduced PDL1 protein expression
  erlotinib-resistance: reversed erlotinib-resistance
[1]
  radiosensitization and EMT blockade: mediated radiosensitization and EMT blockade
[2]; human NSCLC epithelial cell lines
  association with PDL1 gene expression: inhibitory association

## CC(C)c1ccccc1Cc1cc(C(=O)Nc2ccc(S(=O)(=O)c3ccccc3C(C)(C)C)cc2)c(O)c(O)c1O [TW-37]
NSCLC [3]
  effect on pro-apoptosis and anti-migration ability of gefitinib: enhanced

## C[C@H]1[C@H](NC(=O)/C(=N\OC(C)(C)C(=O)O)c2csc(N)n2)C(=O)N1S(=O)(=O)O [aztreonam]
[4]
  correlation of drug concentration [IC50, EC50, ln(IC50), or ln(EC50)] with mRNA expression of CD27, PD1, or PDL1: significant negative correlation

## CO[C@@H](C(=O)N1Cc2n[nH]c(NC(=O)c3ccc(N4CCN(C)CC4)cc3)c2C1)c1ccccc1 [danusertib]
[5]
  EC50: < 1 µM
  IC50: < 1 µM
[6]; common solid tumor types
  anti-tumor activity: marginal anti-tumor activity
[6]; phase I and phase II clinical studies
  tolerability: well tolerated
[2]
  correlation of EC50 with CD27 mRNA expression: significant negative correlation
[2]; listed as Danusertib
  correlation of EC50 with CD27 mRNA expression: inhibitory association

## Cc1nc(Nc2ncc(C(=O)Nc3c(C)cccc3Cl)s2)cc(N2CCN(CCO)CC2)n1 [dasatinib]
CCLE NSCLC cell lines; [9]
  IC50: ≤ 1 µM

## CCN(CC)C(=S)SSC(=S)N(CC)CC [disulfiram]
CCLE NSCLC cell lines; [10]
  IC50: < 1 µM

## COc1cccc2c1C(=O)c1c(O)c3c(c(O)c1C2=O)C[C@@](O)(C(=O)CO)C[C@@H]3O[C@H]1C[C@H](N)[C@H](O)[C@H](C)O1 [doxorubicin]
CCLE NSCLC cell lines; [10]
  IC50: < 1 µM

## CC1CC(OC(=O)c2ccccc2O)CC(C)(C)C1 (stereo not shown) [homosalate]
CCLE NSCLC cell lines; [9]
  IC50: ≤ 1 µM

## CCc1c2c(nc3ccc(OC(=O)N4CCC(N5CCCCC5)CC4)cc13)-c1cc3c(c(=O)n1C2)COC(=O)[C@]3(O)CC [irinotecan]
[4]
  correlation of drug concentration [IC50, EC50, ln(IC50), or ln(EC50)] with mRNA expression of CD27, PD1, or PDL1: significant negative correlation

## C[C@]12O[C@H](C[C@]1(O)CO)n1c3ccccc3c3c4c(c5c6ccccc6n2c5c31)CNC4=O [lestaurtinib]
[5]
  EC50: < 1 µM
  IC50: < 1 µM
CCLE NSCLC cell lines; [9]
  IC50: ≤ 1 µM

## O=C1c2c(O)ccc(O)c2C(=O)c2c(NCCNCCO)ccc(NCCNCCO)c21 [mitoxantrone]
CCLE NSCLC cell lines; [10]
  IC50: < 1 µM
[4]
  correlation of drug concentration [IC50, EC50, ln(IC50), or ln(EC50)] with mRNA expression of CD27, PD1, or PDL1: significant negative correlation

## OC1(c2ccc(Cl)c(C(F)(F)F)c2)CCN(CCCC(c2ccc(F)cc2)c2ccc(F)cc2)CC1 [penfluridol]
CCLE NSCLC cell lines; [9]
  IC50: ≤ 1 µM

## COc1cc(/C=C/C(=O)N2CCC=CC2=O)cc(OC)c1OC [piperlongumine]
[4]
  correlation of drug concentration [IC50, EC50, ln(IC50), or ln(EC50)] with mRNA expression of CD27, PD1, or PDL1: significant negative correlation

## COc1ccc(C[C@H](N)C(=O)N[C@H]2[C@@H](O)[C@H](n3cnc4c(N(C)C)ncnc43)O[C@@H]2CO)cc1 [puromycin]
[4]
  correlation of drug concentration [IC50, EC50, ln(IC50), or ln(EC50)] with mRNA expression of CD27, PD1, or PDL1: significant negative correlation

## CC(/C=C/C(=O)NO)=C\[C@@H](C)C(=O)c1ccc(N(C)C)cc1 [trichostatin A]
[4]
  correlation of drug concentration [IC50, EC50, ln(IC50), or ln(EC50)] with mRNA expression of CD27, PD1, or PDL1: significant negative correlation

## MORAb-202
[7]
  antitumor response: robust antitumor response

## durvalumab: anti-PD-L1
NSCLC [8]; durvalumab arm
  median OS: not reached
NSCLC [8]; phase III randomized trial
  overall survival HR vs placebo arm: 0.69 (95% CI 0.55-0.86)

## ivermectin
[4]
  correlation of drug concentration [IC50, EC50, ln(IC50), or ln(EC50)] with mRNA expression of CD27, PD1, or PDL1: significant negative correlation

## nivolumab: PD-1 inhibitor
Resected NSCLC tumors
  pathological response: 45%
